What was measured:
[1] = system: HeLa-MaTu-ADR cells; test: Proliferation assay, HeLa-MaTu-ADR (crystal violet); type: cell-based; conditions: Homo sapiens, 96 h, 4 days, read-out: Inhibition of HeLa-MaTu-ADR cell proliferation IC50
Procedure: (§1) Cultivated tumour cells (HeLa, human cervical tumour cells, ATCC CCL-2; NCI-H460, human non-small cell lung carcinoma cells, ATCC HTB-177; DU 145, hormone-independent human prostate carcinoma cells, ATCC HTB-81; HeLa-MaTu-ADR, multidrug-resistant human cervical carcinoma cells, EPO-GmbH Berlin; Caco-2, human colorectal carcinoma cells, ATCC HTB-37; B16F10, mouse melanoma cells, ATCC CRL-6475) were plated at a density of 5,000 cells/well (DU145, HeLa-MaTu-ADR), 3,000 cells/well (NCI-H460, HeLa), 1,500 cells/well (Caco-2), or 1,000 cells/well (B16F10) in a 96-well multititer plate in 200 μL of their respective growth medium supplemented 10% fetal calf serum. After 24 hours, the cells of one plate (zero-point plate) were stained with crystal violet (see below), while the medium of the other plates was supplemented with the test substances in various concentrations (0 μM, as well as in the range of 0.0001-10 μM; the final concentration of the solvent dimethyl sulfoxide was adjusted to 0.1%) using a Hewlett-Packard HP D300 Digital Dispenser. The cells were incubated for 4 days in the presence of test substances. Cell proliferation was determined by staining the cells with crystal violet: the cells were fixed by adding 20 μl/measuring point of an 11% glutaric aldehyde solution for 15 minutes at room temperature. After three washing cycles of the fixed cells with water, the plates were dried at room temperature. The cells were stained by adding 100 μl/measuring point of a 0.1% crystal violet solution (pH 3.0). After three washing cycles of the stained cells with water, the plates were dried at room temperature. The dye was dissolved by adding 100 μl/measuring point of a 10% acetic acid solution. The extinction was determined by photometry at a wavelength of 595 nm. The change of cell number, in percent, was calculated by normalization of the measured values to the extinction values of the zero-point plate (=0%) and the extinction of the untreated (0 Wm) cells (=100%). The IC50 values (inhibitory concentration at 50% of maximal effect) were determined by means of a 4 parameter fit.

[2] = system: NCI-H460 cells; test: Proliferation assay, NCI-H460 (crystal violet); type: cell-based; conditions: Homo sapiens, 96 h; NCI-H460, 4 days; read-out: Inhibition of NCI-H460 cell proliferation IC50
Procedure: as §1

[3] = system: HeLa cells; test: Proliferation assay, HeLa (crystal violet); type: cell-based; conditions: Homo sapiens, 96 h, 4 days, read-out: Inhibition of HeLa cell proliferation IC50
Procedure: as §1

[4] = molecular target: T1, human PTEFb (CDK9/Cyclin T1) (Homo sapiens, UniProt P50750); test: Surface Plasmon Resonance PTEFb; type: binding; conditions: SPR, 37° C.; for residence time: 1/koff, read-out: Target residence time; for residence time / koff: * = arithmetic mean; for Kd: * = arithmetic mean of more than one value, read-out: Equilibrium dissociation constant KD; for koff: < = below what is resolvable, read-out: Dissociation rate constant koff
T1 construct: purchased ProQinase, Freiburg, Germany
From the text: 8. Surface Plasmon Resonance PTEFb
The ability of the compounds according to the invention to bind human PTEFb may be determined using surface plasmon resonance (SPR). KD values and koff values may be measured using a Biacore® T200 instrument (GE Healthcare, Uppsala, Sweden).
For SPR measurements, recombinant human PTEFb (CDK9/Cyclin T1 recombinant human active protein kinase purchased from ProQinase, Freiburg, Germany) is immobilized using standard amine coupling (Johnsson B et al, Anal Biochem. 1991 Nov. 1; 198(2):268-77). Briefly, carboxymethylated dextran biosensor chips (CM7, GE Healthcare) are activated with N-ethyl-N′-(3-dimethylaminopropyl)-carbodiimide hydrochloride (EDC) and N-hydroxysuccinimide (NHS) according to the supplier's instructions. Human PTEFb is diluted in 1×HBS-EP+(GE Healthcare) and injected on the activated chip surface. Subsequently, a 1:1 solution of 1 M ethanolamine-HCl (GE Healthcare) and 1×HBS-EP is injected to block unreacted groups, resulting in approximately 4000 response units (RU) of immobilized protein. A reference surface is generated by treatment with NHS-EDC and ethanolamine-HCl. Compounds are dissolved in 100% dimethylsulfoxide (DMSO, Sigma-Aldrich, Germany) to a concentration of 10 mM and subsequently diluted in running buffer (1×HBS-EP+pH 7.4 [generated from HBS-EP+Buffer 10×(GE Healthcare): 0.1 M HEPES, 1.5 M NaCl, 30 mM EDTA and 0.5% v/v Surfactant P20], 1% v/v DMSO). For kinetic measurements, serial dilutions of compound (0.078 nM up to 25 nM) are injected over immobilized protein. Binding kinetics is measured at 37° C. with a flow rate of 100 μl/min in running buffer. Compound concentrations are injected for 70 s followed by a dissociation time of 1100 s. The resulting sensorgrams are double-referenced against the reference surface as well as against blank injections.
The double-referenced sensorgrams are fit to a simple reversible Langmuir 1:1 reaction mechanism as implemented in the Biacore® T200 evaluation software 2.0 (GE Healthcare). In cases were full compound dissociation has not occurred at the end of the dissociation phase, the Rmax parameter (response at saturation) is fit as local variable. In all other cases, Rmax is fit as global variable.

T1 sequence (P50750 whole entry): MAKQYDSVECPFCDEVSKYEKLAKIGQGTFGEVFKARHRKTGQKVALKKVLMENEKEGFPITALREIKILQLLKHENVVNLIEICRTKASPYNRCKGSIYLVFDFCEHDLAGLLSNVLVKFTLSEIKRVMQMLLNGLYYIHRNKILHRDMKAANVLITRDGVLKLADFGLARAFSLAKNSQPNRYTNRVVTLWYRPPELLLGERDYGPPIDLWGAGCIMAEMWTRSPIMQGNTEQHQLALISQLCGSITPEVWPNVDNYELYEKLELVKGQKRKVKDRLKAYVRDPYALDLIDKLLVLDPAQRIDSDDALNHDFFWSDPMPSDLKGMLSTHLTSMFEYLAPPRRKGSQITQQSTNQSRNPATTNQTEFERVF
T1 sequence (O60563 whole entry partner): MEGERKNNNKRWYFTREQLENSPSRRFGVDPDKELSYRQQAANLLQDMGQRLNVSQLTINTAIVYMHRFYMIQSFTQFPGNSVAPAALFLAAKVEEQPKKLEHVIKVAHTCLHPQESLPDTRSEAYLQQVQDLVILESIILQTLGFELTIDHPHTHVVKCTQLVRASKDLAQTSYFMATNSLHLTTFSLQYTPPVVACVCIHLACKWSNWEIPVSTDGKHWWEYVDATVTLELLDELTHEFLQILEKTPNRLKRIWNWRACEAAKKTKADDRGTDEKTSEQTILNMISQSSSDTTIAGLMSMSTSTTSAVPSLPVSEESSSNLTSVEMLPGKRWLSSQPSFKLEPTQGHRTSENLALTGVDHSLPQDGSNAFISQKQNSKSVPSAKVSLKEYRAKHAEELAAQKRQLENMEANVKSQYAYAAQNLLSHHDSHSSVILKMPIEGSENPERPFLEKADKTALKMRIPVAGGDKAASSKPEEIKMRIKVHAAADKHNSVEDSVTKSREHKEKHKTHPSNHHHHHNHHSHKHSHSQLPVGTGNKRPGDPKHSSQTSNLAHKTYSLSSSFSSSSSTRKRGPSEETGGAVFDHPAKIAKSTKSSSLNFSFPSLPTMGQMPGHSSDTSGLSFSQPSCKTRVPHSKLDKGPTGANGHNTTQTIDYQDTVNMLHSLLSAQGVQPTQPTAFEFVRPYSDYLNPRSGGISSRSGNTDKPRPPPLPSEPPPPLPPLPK

| IC50 [1] [nM] | IC50 [2] [nM] | IC50 [3] [nM] | residence time [4] [min] | Kd [4] [nM] | koff [4] [s⁻¹] | Compound |
| --- | --- | --- | --- | --- | --- | --- |
| 46 | 33 | 40 | – | – | – | CC(C)(C)OC(=O)N=S(C)(=O)Cc1cc2cc(c1)OCCCCNc1cc(ccc1F)-c1nc(ncc1F)N2 (racemic) [Example 1, (rac)-tert-butyl [{[3,20-difluoro-13-oxa-5,7,18,25-tetraazatetracyclo[17.3.1.1^2,6.1^8,12]pentacosa-1(23),2(25),3,5,8(24),9,11,19,21-nonaen-10-yl]methyl}(methyl)oxido-λ^6-sulfanylidene]carbamate] |
| 5.3 | 9.2 | 4.4 | > 208 | 0.074 | < 8e-05 | CS(=N)(=O)Cc1cc2cc(c1)OCCCCNc1cc(ccc1F)-c1nc(ncc1F)N2 (racemic) [Example 2, (rac)-3,20-difluoro-10-[(S-methylsulfonimidoyl)methyl]-13-oxa-5,7,18,25-tetraazatetracyclo[17.3.1.1^2,6.1^8,12]pentacosa-1(23),2(25),3,5,8(24),9,11,19,21-nonaene] |
| 23 | 25 | 15 | 13 | 0.38 | 0.0012 | CS(=N)(=O)Cc1cc2cc(c1)OCCCNc1cc(ccc1F)-c1nc(ncc1F)N2 (racemic) [Example 3, (rac)-3,19-difluoro-10-[(S-methylsulfonimidoyl)methyl]-13-oxa-5,7,17,24-tetraazatetracyclo[16.3.1.1^2,6.1^8,12]tetracosa-1(22),2(24),3,5,8(23),9,11,18,20-nonaene] |
| – | – | – | 33 | 0.28 | 0.0005 | CC1CCCNc2cc(ccc2F)-c2nc(ncc2F)Nc2cc(CS(C)(=O)=O)cc(c2)O1 (racemic) [Example 8, (rac)-3,20-difluoro-14-methyl-10-[(methylsulfonyl)methyl]-13-oxa-5,7,18,25-tetraazatetracyclo[17.3.1.1^2,6.1^8,12]pentacosa-1(23),2(25),3,5,8(24),9,11,19,21-nonaene] |
